Experimental findings from patent US20240209011A1, “HETEROAROMATIC PHOSPHONIUM SALTS FOR TREATING CANCER” (FLORATEK PHARMA S.A., priority 2021, published 2024) are described below.

Broadly, the IC50 is the point on the concentration scale where inhibition reaches its midpoint. A higher IC50 goes with lower potency.

Type in all cases: cell-based
For one test, the system named is brain cancer cell. Briefly: Activity against brain cancer cells. Particulars: brain cancer cell growth; Tables 4A-4D. The method, then: (§1) Antitumor activity of the compounds and doxorubicin as a positive control was assessed by using the CellTiter-Blue Cell Viability Assay (Promega, #G8082) or CellTiter-Glow® Luminescent Cell Viability assay (Promega #G7572) according to the manufacturer's instructions. The compounds were tested at 5 or 6 concentrations in half-log increments (highest concentration 30 μM or 100 μM) in duplicate or triplicate well conditions.
(§2) Tumor cells were grown at 37° C. in a humidified atmosphere with 5% CO2 in RPMI 1640 or DMEM medium, supplemented with 10% (v/v) fetal calf serum and 50 μg/ml gentamicin for up to 20 passages, and were passaged once or twice weekly. Cells were harvested using TrypLE or PBS buffer containing 1 mM EDTA, and the percentage of viable cells is determined using a CASY Model TI cell counter (OMNI Life Science). Cells were harvested from exponential phase cultures, counted and plated in 96 well flat-bottom microtiter plates at a cell density depending on the cell line's growth rate (4,000-20,000 cells/well depending on the cell line's growth rate, up to 60,000 for hematological cancer cell lines) in RPMI 1640 or DMEM medium supplemented with 10% (v/v) fetal calf serum and 50 μg/ml gentamicin (140 μl/well). Cultures were incubated at 37° C. and 5% CO2 in a humidified atmosphere. After 24 h, 10 μl of test compounds or control medium were added, and left on the cells for another 72 h. Compounds were serially diluted in DMSO, transferred in cell culture medium, and added to the assay plates. The DMSO concentration was kept constant at <0.3% v/v across the assay plate. Viability of cells was quantified by the CellTiter-Blue® cell viability assay (Promega G8081) or CellTiter-Glow® Luminescent Cell Viability assay (Promega #G7572). Fluorescence (FU) was measured by using the EnSpire® multimode plate reader (Perkin Elmer) (excitation X=570 nm, emission λ=600 nm). Luminescence was measured with a microplate luminometer (Promega or PerkinElmer).
(§3) Sigmoidal concentration-response curves were fitted to the data points (test-versus-control, T/C values) obtained for each tumor model using 4 parameter non-linear curve fit (Charles River DRS Datawarehouse Software) or with GraphPad prism 5.02 software. IC50 values are reported as absolute IC50 values, being the concentration of test compound at the intersection of the concentration-response curves with T/C=50% Cell lines tested are presented in Table 1.

A further test relates to breast cancer cell. Briefly: Activity against breast cancer cells. Particulars: breast cancer cell growth; Tables 5A and B. As for the experimental part: as §1, §2, §3
A further test concerns colon cancer cell. Put plainly: Activity against colon cancer cells. The conditions noted are these: colon cancer cell growth; summary of Tables 7A-7D. The method, then: as §1, §2, §3
The test system of the next test is leukaemia cell. Put plainly: Activity against leukaemia cells. The conditions noted are these: leukaemia cell growth; Tables 13A and 13B. As for the experimental part:
as §1, §2, §3

Another test deals with 22Rv1. Briefly: Cell viability assay (CellTiter-Blue/CellTiter-Glow). The conditions noted are these: Homo sapiens; prostate carcinoma cell line 22Rv1; absolute IC50; 72 h. As for the experimental part:
as §1, §2, §3
A general note: Alamar Blue is a resazurin reagent that responds to reducing activity.

Another test has as its system HCT-116. The description is as above. Particulars: Homo sapiens; colon carcinoma cell line HCT-116; absolute IC50; 72 h. The method, then: as §1, §2, §3
The test system of another test is HL-60. Described as above. The conditions noted are these: Homo sapiens; leukaemia cell line HL-60; absolute IC50; 72 h. The method, then: as §1, §2, §3
The subject of another test is LNCaP. The test is described as above. The conditions noted are these: Homo sapiens; prostate carcinoma cell line LNCaP; absolute IC50; 72 h. The method, then: as §1, §2, §3
For a further test, the system named is LoVo. Described as above. The conditions noted are these: Homo sapiens; colon carcinoma cell line LoVo; absolute IC50; 72 h. The method, then: as §1, §2, §3
The next test relates to MCF-7. The description is as above. The conditions noted are these: Homo sapiens, MCF7; breast carcinoma cell line MCF-7; absolute IC50; 72 h. The method, then: as §1, §2, §3
The subject of the next test is MDA-MB-468. The test is described as above. The conditions noted are these: Homo sapiens; breast carcinoma cell line MDA-MB-468; absolute IC50; 72 h. As for the experimental part:
as §1, §2, §3

The next test has as its system PC-3. The test is described as above. The conditions noted are these: Homo sapiens; prostate carcinoma cell line PC-3; absolute IC50; 72 h. The method, then:
as §1, §2, §3

The test system of the next test is ovarian cancer cell. Put plainly: Activity against ovarian cancer cells. Particulars: ovarian cancer cell growth; Tables 18A-18C. As for the experimental part: as §1, §2, §3
The test system of a further test is pancreatic cancer cell. Briefly: Activity against pancreatic cancer cells. Particulars: pancreatic cancer cell growth; Table 19A. As for the experimental part:
as §1, §2, §3

In a further test the test system is prostate cancer cell. Put plainly: Activity against prostate cancer cells. Particulars: prostate cancer cell growth; text summary of Table 21. The method, then: as §1, §2, §3

Turning to `O=c1cc(-c2ccc(CCCC[P+](c3ccccc3)(c3ccccc3)c3ccccc3)cc2)oc2c(O)c(O)ccc12` [SND118, 4-[4-(7,8-dihydroxy-4-oxo-chromen-2-yl)phenyl]butyltriphenyl-phosphonium bromide], the concentration for half-maximal inhibition (IC50) with brain cancer cell is less than 20 µM; in the test on breast cancer cell, less than 20 µM; in the test with colon cancer cell it was less than 20 µM; in the test on leukaemia cell, less than 20 µM; in the test on 22Rv1 it was 5.1 µM; in the test with HCT-116 it was 1.53 µM. Further, the half-maximal inhibitory concentration (IC50) in the test with HL-60 stood at 0.29 µM; with LNCaP, 1.87 µM; in the test with LoVo, 7.9 µM; in the test on MCF-7, 0.86 µM; in the test with MDA-MB-468, 0.32 µM; in the test on PC-3, 5.3 µM. Further, the IC50 was less than 20 µM in the test with ovarian cancer cell, less than 20 µM with pancreatic cancer cell and less than 10 µM with prostate cancer cell.
As for `O=c1cc(-c2ccc(CCCC[P+](c3ccccc3)(c3ccccc3)c3ccccc3)cc2)oc2c3c(ccc12)OCO3.[Br-]` [SND123, 4-[4-(6-oxo-[1,3]dioxolo[4,5-h]chromen-8-yl)phenyl]butyl-triphenylphosphonium bromide], the IC50 in the test on brain cancer cell was less than 20 µM; with breast cancer cell, less than 20 µM; in the test with colon cancer cell, less than 20 µM; with leukaemia cell, less than 20 µM; with 22Rv1, 1.49 µM; in the test with HCT-116, 2.25 µM. Besides, the IC50 is 1.08 µM with HL-60; 1.37 µM in the test on LNCaP; 1.7 µM with LoVo; 6.87 µM with MCF-7; 0.36 µM in the test with MDA-MB-468; 1.89 µM in the test on PC-3. In addition, the IC50 in the test on ovarian cancer cell was less than 20 µM; in the test on pancreatic cancer cell, less than 20 µM; in the test on prostate cancer cell it was less than 10 µM.
Regarding `CCNC(=O)Oc1ccc2c(=O)cc(-c3ccc(CCCC[P+](c4ccccc4)(c4ccccc4)c4ccccc4)cc3)oc2c1OC(=O)NCC.[Br-]` [SND124, 4-[4-[7,8-Bis(ethylcarbamoyloxy)-4-oxo-chromen-2-yl]phenyl]-butyltriphenylphosphonium bromide], the IC50 was less than 20 µM in the test with brain cancer cell; less than 20 µM with breast cancer cell; less than 20 µM in the test on colon cancer cell; less than 20 µM in the test on leukaemia cell; 3.4 µM in the test with 22Rv1; 4.2 µM in the test on HCT-116. In addition, the IC50 was 0.29 µM in the test on HL-60; 4 µM in the test on LNCaP; 21.4 µM in the test on LoVo; 2 µM with MCF-7; 0.5 µM in the test with MDA-MB-468; 6.3 µM in the test on PC-3. Moreover, the IC50 is less than 20 µM in the test on ovarian cancer cell, less than 20 µM with pancreatic cancer cell and less than 10 µM with prostate cancer cell.
Turning to `CCNC(=O)Oc1ccc2c(=O)cc(-c3ccc(CCCC[P+](c4ccccc4)(c4ccccc4)c4ccccc4)cc3)oc2c1O.[Br-]` [SND126A, 4-[4-[7-(Ethylcarbamoyloxy)-8-hydroxy-4-oxo-chromen-2-yl]phenyl]butyltriphenylphosphonium bromide], the IC50 in the test with brain cancer cell was less than 20 µM; in the test on breast cancer cell, less than 20 µM; with colon cancer cell it was less than 20 µM; in the test on leukaemia cell, less than 20 µM; in the test on 22Rv1, 2.39 µM; with HCT-116, 3.56 µM. The IC50 amounted to 0.58 µM in the test on HL-60; 1.95 µM in the test with LNCaP; 2.94 µM in the test with LoVo; 12.9 µM in the test with MCF-7; 0.56 µM in the test with MDA-MB-468; 2.91 µM with PC-3. Moreover, the IC50 is less than 20 µM in the test with ovarian cancer cell, less than 20 µM in the test with pancreatic cancer cell and less than 10 µM in the test on prostate cancer cell.
On to `CC(C)NC(=O)Oc1ccc2c(=O)cc(-c3ccc(CCCC[P+](c4ccccc4)(c4ccccc4)c4ccccc4)cc3)oc2c1O` [SND127, 4-[4-[7-(Isopropylcarbamoyloxy)-8-hydroxy-4-oxo-chromen-2-yl]phenyl]butyltriphenylphosphonium bromide], for which the IC50 was less than 20 µM in the test with brain cancer cell; less than 20 µM with breast cancer cell; less than 20 µM in the test with colon cancer cell; less than 20 µM in the test with leukaemia cell; 3.3 µM in the test on 22Rv1; 6.2 µM with HCT-116. For the same compound, the IC50 amounted to 1.54 µM with HL-60; 2 µM in the test with LNCaP; 8.4 µM with LoVo; 6.7 µM in the test on MCF-7; 0.6 µM with MDA-MB-468; 5.5 µM with PC-3. In addition, the figures for the IC50 in the test on ovarian cancer cell, in the test with pancreatic cancer cell and in the test with prostate cancer cell were less than 20 µM, less than 20 µM and less than 10 µM, respectively.
In the case of `COc1c(O)ccc2c(=O)cc(-c3ccc(CCCC[P+](c4ccccc4)(c4ccccc4)c4ccccc4)cc3)oc12.[Br-]` [SND140, (4-(4-(7-hydroxy-8-methoxy-4-oxo-4H-chromen-2-yl)phenyl)butyl)triphenylphosphonium bromide], the IC50 is less than 20 µM in the test with brain cancer cell; less than 20 µM with breast cancer cell; less than 20 µM in the test with colon cancer cell; less than 20 µM in the test with leukaemia cell; 9 µM in the test on 22Rv1; 10.6 µM with HCT-116. The IC50 in the test with HL-60 was found to be 0.9 µM; in the test with LNCaP, 6.23 µM; with LoVo, 16.3 µM; in the test on MCF-7, 4.3 µM; with MDA-MB-468, 2.8 µM; in the test with PC-3, 8.31 µM. The IC50 in the test on ovarian cancer cell is less than 20 µM; in the test on pancreatic cancer cell it was less than 20 µM; with prostate cancer cell, less than 10 µM.
